Assay results as given in publication PMC9027532, “Preclinical Pharmacokinetic Studies of a Novel Diuretic Inhibiting Urea Transporters” (Molecules, 2022).
Entries after “also recorded” stand apart in the source; their conditions may differ.

Tests used:
mice = tested on: mice; design: method as in PMID 34601246; settings: orally administered; cited from earlier work
SD rats = assay: PK-PD study: urine output increment (diuresis) in rats; assay type: in vivo, Sprague-Dawley rats
[1] = Blood plasma ratio, rat blood; assay type: in vitro ADME, SD rats; settings: for Blood Plasma Ratio: rat
Description: (§1) The BPR of 25a in rats and humans was assessed. […] In addition, a significant species difference between rats and humans was observed (p < 0.05, Student’s t-test, n = 3).
(§2) The blood plasma ratio of 25a was investigated as previously reported. Briefly, fresh whole blood was collected into collection tubes containing K2–EDTA as an anticoagulant from SD rats and healthy volunteers. Blood spiked with 50, 500, and 2500 ng/mL 25a was incubated in the incubator with 5% CO2 at 37 ± 1 °C for 1 h. Some of the incubated samples were processed as blood samples; the remaining incubated samples were centrifuged to generate plasma samples. The concentration of 25a in samples was determined using the validated LC–MS/MS method.

in vivo = settings: male, Sprague-Dawley, rat, po
[2] = Pharmacokinetic study in rats (plasma, LC-MS/MS, NCA); settings: for concentration at 0.083 h / concentration at 0.167 h / concentration at 0.25 h / concentration at 0.5 h / concentration at 1 h / concentration at 2 h / concentration at 4 h / concentration at 6 h / concentration at 8 h / concentration at 12 h / concentration at 24 h: Mean plasma concentration
[3] = Blood plasma ratio, human blood; assay type: in vitro ADME; settings: for Blood Plasma Ratio: human
Description: as §1, §2

[4] = male, Sprague-Dawley, rat, plasma, iv, 1 mg/kg
[5] = male, Sprague-Dawley, rat, plasma, po, 25 mg/kg
[6] = male, Sprague-Dawley, rat, plasma, po, 25 mg/kg, rats, single p.o. 25 mg/kg
[7] = male, Sprague-Dawley, rat, plasma, po, 50 mg/kg
[8] = male, Sprague-Dawley, rat, plasma, po, 50 mg/kg, rats, single p.o. 50 mg/kg
[9] = male, Sprague-Dawley, rat, plasma, po, 100 mg/kg
[10] = male, Sprague-Dawley, rat, plasma, po, 100 mg/kg, rats, multiple p.o. 100 mg/kg, twice per day for 7 days
[11] = male, Sprague-Dawley, rat, plasma, po, 100 mg/kg, rats, single p.o. 100 mg/kg
[12] = male, Sprague-Dawley, rat, plasma, po, 100 mg/kg, rats, multiple p.o. 100 mg/kg

For `CC(=O)Nc1ccc(NC(=O)c2ccc(C(C)=O)o2)cc1` [Compound 25a, N-(4-acetamidophenyl)-5-acetylfuran-2-carboxamide], the “Na+, K+, and Cl− levels in the blood” value (mice) is listed as “without disturbing”, the “duration of urea-selective diuresis” value (mice) is listed as 8 h and the “urine output vs vehicle control” value (mice) is listed as “three times higher urine output than vehicle control”. The “urine output increment per 12 h (diuresis)” value (SD rats; p.o. 25 mg/kg) was 0.5 ± 0.2 mL, the “urine output increment per 12 h (diuresis)” value (SD rats; p.o. 50 mg/kg) was 1.6 ± 0.8 mL and the “urine output increment per 12 h (diuresis)” value (SD rats; p.o. 100 mg/kg) was 2.7 ± 0.9 mL. The “Blood Plasma Ratio” value ([1]; 50 ng/mL) was 0.84 ± 0.26, the “Blood Plasma Ratio” value ([1]; 500 ng/mL) was 0.74 ± 0.06 and the “Blood Plasma Ratio” value ([1]; 2500 ng/mL) was 0.79 ± 0.15. The “mean blood plasma ratio (BPR)” value ([1]; rats, 50, 500, 2500 ng/mL) was 0.74–0.84, the MRT (in vivo) was about 5.4 h and the MRT (in vivo; 50 mg/kg) was 5.4 ± 0.8 h. It also gave an AUC(0-t) (in vivo; 100 mg/kg) of 6920 ± 377 ng·h/mL, an AUC(0-inf) [2, 4] of 503 ± 124 ng·h/mL and an AUC(0-t) [2, 4] of 501 ± 124 ng·h/mL. It also gave a C0 [2, 4] of 1710 ± 398 ng/mL, an MRT ([2]; male, Sprague-Dawley, rat, plasma, iv, 1 mg/kg, rats, single i.v. 1 mg/kg) of 0.6 ± 0.1 h and a half-life ([2]; male, Sprague-Dawley, rat, plasma, iv, 1 mg/kg, t1/2, rats, single i.v. 1 mg/kg) of 53.4 ± 31.2 min. The AUC(0-inf) [2, 5] was 2530 ± 362 ng·h/mL, the AUC(0-t) [2, 5] was 2520 ± 395 ng·h/mL and the CL/F [2, 6] was 165 mL/min/kg. For the same compound, the Cmax [2, 6] was 515 ± 107 ng/mL, the bioavailability ([2]; male, Sprague-Dawley, rat, plasma, po, 25 mg/kg, F (oral bioavailability), rats, single p.o. 25 mg/kg) was 20.1 ± 0.8% and the MRT [2, 6] was 5.2 ± 0.4 h. It also gave a concentration at 0.083 h [2, 6] of 282 ± 62.3 ng/mL, a concentration at 0.167 h [2, 6] of 431 ± 116 ng/mL and a concentration at 0.25 h [2, 6] of 515 ± 122 ng/mL. For the same compound, the concentration at 0.5 h [2, 6] was 167 ± 33.5 ng/mL, the concentration at 1 h [2, 6] was 245 ± 92.5 ng/mL and the concentration at 2 h [2, 6] was 206 ± 83.7 ng/mL. The concentration at 4 h [2, 6] was 372 ± 74.3 ng/mL, the concentration at 6 h [2, 6] was 230 ± 49.7 ng/mL and the concentration at 8 h [2, 6] was 102 ± 7.7 ng/mL. For the same compound, the concentration at 12 h [2, 6] was 36.8 ± 2.7 ng/mL, the concentration at 24 h [2, 6] was 2.1 ± 1.3 ng/mL and the half-life ([2]; male, Sprague-Dawley, rat, plasma, po, 25 mg/kg, t1/2, rats, single p.o. 25 mg/kg) was 172 ± 17.4 min. The Tmax ([2]; male, Sprague-Dawley, rat, plasma, po, 25 mg/kg, tmax, rats, single p.o. 25 mg/kg) was 15 min, the AUC(0-inf) [2, 7] was 4740 ± 854 ng·h/mL and the AUC(0-t) [2, 7] was 4730 ± 854 ng·h/mL. For the same compound, the CL/F [2, 8] was 175 mL/min/kg, the Cmax [2, 8] was 693 ± 260 ng/mL and the bioavailability ([2]; male, Sprague-Dawley, rat, plasma, po, 50 mg/kg, F (oral bioavailability), rats, single p.o. 50 mg/kg) was 18.9 ± 1.7%. For the same compound, the concentration at 0.083 h [2, 8] was 236 ± 93.5 ng/mL, the concentration at 0.167 h [2, 8] was 380 ± 173 ng/mL and the concentration at 0.25 h [2, 8] was 496 ± 211 ng/mL. It also gave a concentration at 0.5 h [2, 8] of 693 ± 272 ng/mL, a concentration at 1 h [2, 8] of 429 ± 149 ng/mL and a concentration at 2 h [2, 8] of 454 ± 97.6 ng/mL. For the same compound, the concentration at 4 h [2, 8] was 553 ± 97.8 ng/mL, the concentration at 6 h [2, 8] was 383 ± 166 ng/mL and the concentration at 8 h [2, 8] was 271 ± 75.1 ng/mL. It also gave a concentration at 12 h [2, 8] of 78.3 ± 36.1 ng/mL, a concentration at 24 h [2, 8] of 3.6 ± 1.1 ng/mL and a half-life ([2]; male, Sprague-Dawley, rat, plasma, po, 50 mg/kg, t1/2, rats, single p.o. 50 mg/kg) of 158 ± 12 min. The Tmax ([2]; male, Sprague-Dawley, rat, plasma, po, 50 mg/kg, tmax, rats, single p.o. 50 mg/kg) was 30 min, the AUC(0-inf) [2, 9] was 12100 ng·h/mL and the AUC(0-t) [2, 9] was 11800 ng·h/mL. For the same compound, the CL/F [2, 10] was 137 mL/min/kg, the CL/F [2, 11] was 240 mL/min/kg and the Cmax [2, 10] was 1710 ± 185 ng/mL. The Cmax [2, 11] was 1320 ± 228 ng/mL, the bioavailability ([2]; male, Sprague-Dawley, rat, plasma, po, 100 mg/kg, F (oral bioavailability), rats, multiple p.o. 100 mg/kg, twice per day for 7 days) was 23.5 ± 2.3% and the bioavailability ([2]; male, Sprague-Dawley, rat, plasma, po, 100 mg/kg, F (oral bioavailability), rats, single p.o. 100 mg/kg) was 13.8 ± 0.8%. It also gave an MRT [2, 10] of 6.5 ± 0.6 h, an MRT [2, 11] of 5.3 ± 0.3 h and a concentration at 0.083 h [2, 12] of 681 ± 97 ng/mL. The concentration at 0.083 h [2, 11] was 1080 ± 287 ng/mL, the concentration at 0.167 h [2, 12] was 936 ± 102 ng/mL and the concentration at 0.167 h [2, 11] was 1320 ± 235 ng/mL. For the same compound, the concentration at 0.25 h [2, 12] was 1090 ± 192 ng/mL, the concentration at 0.25 h [2, 11] was 1210 ± 196 ng/mL and the concentration at 0.5 h [2, 12] was 1260 ± 168 ng/mL. It also gave a concentration at 0.5 h [2, 11] of 1030 ± 124 ng/mL, a concentration at 1 h [2, 12] of 1410 ± 283 ng/mL and a concentration at 1 h [2, 11] of 734 ± 134 ng/mL. It also gave a concentration at 2 h [2, 12] of 1710 ± 185 ng/mL, a concentration at 2 h [2, 11] of 687 ± 146 ng/mL and a concentration at 4 h [2, 12] of 1080 ± 110 ng/mL. The concentration at 4 h [2, 11] was 1130 ± 245 ng/mL, the concentration at 6 h [2, 12] was 717 ± 196 ng/mL and the concentration at 6 h [2, 11] was 835 ± 178 ng/mL. For the same compound, the concentration at 8 h [2, 12] was 494 ± 111 ng/mL, the concentration at 8 h [2, 11] was 596 ± 126 ng/mL and the concentration at 12 h [2, 12] was 245 ± 73.6 ng/mL. For the same compound, the concentration at 12 h [2, 11] was 173 ± 36.7 ng/mL, the concentration at 24 h [2, 12] was 28.1 ± 85.9 ng/mL and the concentration at 24 h [2, 11] was 10.9 ± 6.6 ng/mL. The half-life ([2]; male, Sprague-Dawley, rat, plasma, po, 100 mg/kg, half-life, rats, single oral doses 25, 50, 100 mg/kg) was 156 to 180 min, the half-life ([2]; male, Sprague-Dawley, rat, plasma, po, 100 mg/kg, t1/2, rats, multiple p.o. 100 mg/kg, twice per day for 7 days) was 302 ± 49.2 min and the Tmax at 7 days ([2]; male, Sprague-Dawley, rat, plasma, po, 100 mg/kg, tmax, rats, multiple p.o. 100 mg/kg, twice per day for 7 days) was about 2 h. For the same compound, the Tmax ([2]; male, Sprague-Dawley, rat, plasma, po, 100 mg/kg, tmax, rats, single p.o. 100 mg/kg) was about 10.2 min, the bioavailability ([2]; male, Sprague-Dawley, rat, plasma, po, oral bioavailability, SD rats, oral administration, overall) was at most 20% and the “time of second plasma peak concentration” value ([2]; rats, after intravenous injection) was “Approximately 2 h”. For the same compound, the “time to reach maximum plasma concentration (Cmax)” value ([2]; rats, after oral administration) was at most 0.5 h, the “time of second plasma peak concentration” value ([2]; rats, after oral dosing) was about 4 h and the V/F ([2]; rats, multiple p.o. 100 mg/kg, twice per day for 7 days) was 59.8 ± 11.8 L/kg. The “bioavailability of 25a relative to lead compound 1H” value ([2]; rats, oral) was “approximately fourfold; also recorded: approximately four times higher”, the “V (V/F row)” value ([2]; rats, single i.v. 1 mg/kg) was 2.6 ± 1.4 L/kg and the V/F ([2]; rats, single p.o. 25 mg/kg) was 40.9 ± 7.4 L/kg. For the same compound, the V/F ([2]; rats, single p.o. 50 mg/kg) was 40.1 ± 10.8 L/kg, the “AUC0–∞” value ([2]; rats, single p.o. 100 mg/kg) was 6.9574 ± 0.3451 µg·h/mL and the V/F ([2]; rats, single p.o. 100 mg/kg) was 63.0 ± 17.6 L/kg. For the same compound, the t1/2 ([2]; rats, single p.o. 100 mg/kg) was 3.04 ± 0.70 h, the clearance ([2]; read-out: CL (CL/F row), rats, single i.v. 1 mg/kg) was 35 mL/min/kg and the “Blood Plasma Ratio” value ([3]; 50 ng/mL) was 1.39 ± 0.14. For the same compound, the “Blood Plasma Ratio” value ([3]; 500 ng/mL) was 1.28 ± 0.05, the “Blood Plasma Ratio” value ([3]; 2500 ng/mL) was 1.22 ± 0.32 and the “mean blood plasma ratio (BPR)” value ([3]; humans, 50, 500, 2500 ng/mL) was 1.22–1.39.
